pIC50, pKi: −log10 of the molar value.
Tests used:
IKKβ = IKKβ (Homo sapiens (Human), UniProt O14920); test: IKKβ inhibition; format: biochemical; details: for IC50: Table 1
ROCK1 enzyme = ROCK1 enzyme (Homo sapiens (Human), UniProt Q13464); test: ROCK kinase inhibition assay (ROCK1); format: biochemical; details: Table 1
JAK3 enzyme = JAK3 enzyme (Homo sapiens (Human), UniProt P52333); test: JAK kinase assay (JAK3); format: biochemical; details: for IC50: Table 1
ROCK2 enzyme = ROCK2 enzyme (Homo sapiens (Human), UniProt O75116); test: ROCK kinase inhibition assay (ROCK2); format: biochemical; details: for IC50: Table 1
TYK2 = TYK2 (Homo sapiens (Human), UniProt P29597); test: TYK2 inhibition; format: biochemical; details: Table 1
[1] = system: Porcine Trabecular Meshwork cells (PTM); test: PTM-HTM assay (actin fiber length in PTM cells); format: cell-based; details: Sus scrofa; Table 2
Method: Porcine Trabecular Meshwork cells (PTM) were isolated from freshly obtained enucleated porcine eyes. Immortalized Human Trabecular Meshwork cells (TM-1) were obtained through a kind gift from Donna Peters in the Department of Ophthalmology and Visual Sciences at the University of Wisconsin. Cells were plated onto fibronectin coated glass-bottom 96-well plates and allowed to attach overnight. Media was removed and replaced with test compound in media with 1% fetal bovine serum and incubated for various times. After incubation, cells were formaldehyde fixed, triton solubilized, and stained. PTM cells were stained with Alexa Fluor®488 phalloidin (F-actin) and Hoechst 33342 (nuclei). TM-1 cells were stained with anti-paxillin followed by Alexa Fluor®488 goat-anti-mouse IgG (focal adhesions) and Hoechst 33342 (nuclei). All staining reagents were obtained through Invitrogen. Images were collected on an INCell 2200 imager with a 20× objective. The actin fiber length and total area of focal adhesions were analyzed using custom algorithms developed in the INCell Developer Toolbox, v1.9.3. Data collected were converted to percent of control (untreated cells). Curves were fit to data in GraphPad Prizm using sigmoidal dose-response and constraining top and bottom to 100% and 0%, respectively.

Stat5 = Stat5 assay; format: cell-based; details: Table 1
[2] = Table 2, Ki from IC50 by Cheng-Prusoff

Sequence of ROCK1 enzyme (Q13464 whole entry, species assumed): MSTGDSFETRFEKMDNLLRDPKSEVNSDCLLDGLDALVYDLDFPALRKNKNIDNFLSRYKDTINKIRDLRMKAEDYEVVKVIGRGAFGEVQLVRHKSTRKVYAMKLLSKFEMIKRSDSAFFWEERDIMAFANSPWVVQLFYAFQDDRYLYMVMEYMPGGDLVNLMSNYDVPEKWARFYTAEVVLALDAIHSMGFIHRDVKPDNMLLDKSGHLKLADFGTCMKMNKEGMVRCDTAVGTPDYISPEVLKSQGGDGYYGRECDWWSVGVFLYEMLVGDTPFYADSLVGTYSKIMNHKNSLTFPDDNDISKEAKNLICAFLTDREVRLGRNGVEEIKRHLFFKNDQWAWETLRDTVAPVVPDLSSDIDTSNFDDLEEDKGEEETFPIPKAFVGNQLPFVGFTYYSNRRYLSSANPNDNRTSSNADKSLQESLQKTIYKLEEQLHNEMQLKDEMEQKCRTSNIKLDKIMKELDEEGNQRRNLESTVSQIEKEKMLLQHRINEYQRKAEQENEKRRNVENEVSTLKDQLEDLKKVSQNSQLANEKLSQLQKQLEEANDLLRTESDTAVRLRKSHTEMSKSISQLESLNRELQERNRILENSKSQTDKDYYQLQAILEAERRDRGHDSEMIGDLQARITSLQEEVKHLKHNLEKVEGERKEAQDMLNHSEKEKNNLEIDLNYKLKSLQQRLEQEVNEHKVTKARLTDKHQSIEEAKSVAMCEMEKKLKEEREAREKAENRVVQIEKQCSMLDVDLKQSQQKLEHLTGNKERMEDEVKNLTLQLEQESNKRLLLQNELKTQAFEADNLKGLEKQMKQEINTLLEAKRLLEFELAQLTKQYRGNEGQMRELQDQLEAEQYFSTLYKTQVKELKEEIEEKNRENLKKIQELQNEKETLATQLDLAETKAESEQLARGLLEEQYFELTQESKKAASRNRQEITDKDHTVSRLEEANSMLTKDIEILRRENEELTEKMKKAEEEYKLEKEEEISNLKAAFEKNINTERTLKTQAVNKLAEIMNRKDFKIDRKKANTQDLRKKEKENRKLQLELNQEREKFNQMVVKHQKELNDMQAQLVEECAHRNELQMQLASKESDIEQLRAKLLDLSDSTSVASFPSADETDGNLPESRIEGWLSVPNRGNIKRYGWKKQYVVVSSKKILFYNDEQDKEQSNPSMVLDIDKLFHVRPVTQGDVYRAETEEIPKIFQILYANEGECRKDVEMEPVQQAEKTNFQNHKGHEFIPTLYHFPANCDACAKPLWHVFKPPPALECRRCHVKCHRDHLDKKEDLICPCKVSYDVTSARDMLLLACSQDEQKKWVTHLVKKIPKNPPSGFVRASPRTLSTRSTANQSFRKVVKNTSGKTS
Sequence of TYK2 (P29597 whole entry, species assumed): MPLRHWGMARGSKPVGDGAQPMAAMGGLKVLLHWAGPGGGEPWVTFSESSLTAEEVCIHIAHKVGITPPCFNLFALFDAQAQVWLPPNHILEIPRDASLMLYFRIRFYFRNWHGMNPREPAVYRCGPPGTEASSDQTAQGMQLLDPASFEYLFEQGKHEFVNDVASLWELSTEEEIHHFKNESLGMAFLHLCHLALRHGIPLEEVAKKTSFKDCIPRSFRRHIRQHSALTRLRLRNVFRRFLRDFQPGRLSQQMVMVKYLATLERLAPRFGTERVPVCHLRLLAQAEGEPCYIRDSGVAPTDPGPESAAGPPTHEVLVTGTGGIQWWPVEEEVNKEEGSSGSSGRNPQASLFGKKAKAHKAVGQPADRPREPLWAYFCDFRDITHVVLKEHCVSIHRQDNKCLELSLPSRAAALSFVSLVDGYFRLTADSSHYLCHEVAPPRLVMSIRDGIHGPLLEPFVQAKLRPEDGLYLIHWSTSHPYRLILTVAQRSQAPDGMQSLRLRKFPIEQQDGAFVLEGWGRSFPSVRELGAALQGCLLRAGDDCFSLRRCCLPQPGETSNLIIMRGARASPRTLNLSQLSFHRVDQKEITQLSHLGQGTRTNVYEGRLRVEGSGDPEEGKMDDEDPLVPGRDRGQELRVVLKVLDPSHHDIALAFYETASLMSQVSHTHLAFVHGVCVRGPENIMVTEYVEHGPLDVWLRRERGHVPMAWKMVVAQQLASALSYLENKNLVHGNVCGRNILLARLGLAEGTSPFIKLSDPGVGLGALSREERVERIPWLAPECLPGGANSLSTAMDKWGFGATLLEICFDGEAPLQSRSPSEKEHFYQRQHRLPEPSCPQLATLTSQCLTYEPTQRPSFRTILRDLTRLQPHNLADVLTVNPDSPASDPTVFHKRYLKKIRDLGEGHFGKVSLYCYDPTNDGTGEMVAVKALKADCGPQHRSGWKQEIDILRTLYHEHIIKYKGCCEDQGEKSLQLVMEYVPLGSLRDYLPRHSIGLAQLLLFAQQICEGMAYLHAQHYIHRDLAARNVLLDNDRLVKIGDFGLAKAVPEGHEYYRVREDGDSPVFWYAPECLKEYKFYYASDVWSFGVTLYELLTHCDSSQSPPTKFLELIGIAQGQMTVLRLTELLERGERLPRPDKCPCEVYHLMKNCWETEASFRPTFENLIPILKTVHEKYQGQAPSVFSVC
Sequence of JAK3 enzyme (P52333 whole entry, species assumed): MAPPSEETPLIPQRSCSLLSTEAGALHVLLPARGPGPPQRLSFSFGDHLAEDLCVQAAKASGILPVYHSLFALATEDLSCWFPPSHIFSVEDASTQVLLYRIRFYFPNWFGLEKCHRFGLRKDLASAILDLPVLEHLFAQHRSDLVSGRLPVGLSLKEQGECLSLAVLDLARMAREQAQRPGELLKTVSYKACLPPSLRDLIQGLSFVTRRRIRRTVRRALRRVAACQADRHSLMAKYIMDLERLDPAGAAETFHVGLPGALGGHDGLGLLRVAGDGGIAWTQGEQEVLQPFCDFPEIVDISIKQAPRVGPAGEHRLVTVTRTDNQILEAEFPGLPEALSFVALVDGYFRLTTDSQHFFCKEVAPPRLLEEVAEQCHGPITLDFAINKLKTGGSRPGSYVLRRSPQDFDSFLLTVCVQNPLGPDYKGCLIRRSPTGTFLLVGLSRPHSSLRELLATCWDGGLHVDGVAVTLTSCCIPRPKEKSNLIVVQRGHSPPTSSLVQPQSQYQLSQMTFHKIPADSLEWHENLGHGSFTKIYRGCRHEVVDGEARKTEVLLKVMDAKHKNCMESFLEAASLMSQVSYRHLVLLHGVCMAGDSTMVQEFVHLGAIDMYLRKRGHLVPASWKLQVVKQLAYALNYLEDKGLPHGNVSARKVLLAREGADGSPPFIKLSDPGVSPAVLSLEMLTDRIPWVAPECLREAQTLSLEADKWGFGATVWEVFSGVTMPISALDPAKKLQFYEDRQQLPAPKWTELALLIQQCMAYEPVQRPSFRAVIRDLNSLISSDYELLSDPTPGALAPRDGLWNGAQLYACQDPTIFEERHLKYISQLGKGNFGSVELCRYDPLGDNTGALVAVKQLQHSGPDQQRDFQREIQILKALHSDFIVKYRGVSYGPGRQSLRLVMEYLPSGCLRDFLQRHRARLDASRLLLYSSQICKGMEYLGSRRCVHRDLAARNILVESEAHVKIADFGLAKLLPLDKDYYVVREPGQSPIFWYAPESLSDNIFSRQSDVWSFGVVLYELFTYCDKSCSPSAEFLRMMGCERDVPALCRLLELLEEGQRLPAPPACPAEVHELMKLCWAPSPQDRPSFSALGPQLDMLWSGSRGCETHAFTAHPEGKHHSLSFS
Sequence of IKKβ (O14920 whole entry, species assumed): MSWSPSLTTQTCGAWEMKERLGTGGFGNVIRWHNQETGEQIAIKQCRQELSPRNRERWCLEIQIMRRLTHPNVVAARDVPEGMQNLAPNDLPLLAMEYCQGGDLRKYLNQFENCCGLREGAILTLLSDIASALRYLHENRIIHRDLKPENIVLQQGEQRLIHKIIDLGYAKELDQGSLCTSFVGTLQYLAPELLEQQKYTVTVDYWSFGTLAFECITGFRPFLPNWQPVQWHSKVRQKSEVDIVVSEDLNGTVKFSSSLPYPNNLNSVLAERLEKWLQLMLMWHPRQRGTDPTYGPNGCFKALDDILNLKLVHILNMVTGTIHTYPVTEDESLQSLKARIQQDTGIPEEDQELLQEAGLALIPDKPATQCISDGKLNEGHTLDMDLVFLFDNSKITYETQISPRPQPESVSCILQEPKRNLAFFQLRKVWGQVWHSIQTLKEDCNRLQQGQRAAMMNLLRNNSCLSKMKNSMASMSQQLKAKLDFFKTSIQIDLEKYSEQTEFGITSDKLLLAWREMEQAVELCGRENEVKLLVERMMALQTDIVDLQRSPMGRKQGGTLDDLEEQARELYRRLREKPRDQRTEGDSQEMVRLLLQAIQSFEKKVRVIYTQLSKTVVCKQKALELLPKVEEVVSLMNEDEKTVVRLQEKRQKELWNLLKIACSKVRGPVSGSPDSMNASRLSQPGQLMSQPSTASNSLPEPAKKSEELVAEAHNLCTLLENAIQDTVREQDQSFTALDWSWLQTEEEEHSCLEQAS

Structure (SMILES) | IC50 (IKKβ) [nM] | IC50 (ROCK1 enzyme) [nM] | IC50 (JAK3 enzyme) [nM] | IC50 (ROCK2 enzyme) [nM] | IC50 (TYK2) [nM] | pKi (IKKβ; Table 2) | pIC50 [1] | pKi (JAK3 enzyme; [2]) | pKi (ROCK2 enzyme; [2]) | IC50 (Stat5) [nM]
O=C(Nc1ccc2cnccc2c1)[C@@H]1CC1c1ccc(S(=O)(=O)Nc2ccccn2)c(F)c1 (stereo partly shown) [Compound 18] | 17.5 | 6.4 | 19.5 | 4 | – | – | – | – | – | –
Cc1cncc2ccc(NC(=O)[C@@H]3CC3c3ccc(S(=O)(=O)Nc4ncc(F)cn4)cc3)cc12 (stereo partly shown) [Compound 8] | 7.3 | 121 | 3.9 | 93 | – | – | – | – | – | –
O=C(Nc1ccc2cncc(Cl)c2c1)[C@@H]1CC1c1ccc(S(=O)(=O)Nc2ccc(F)cn2)cc1 (mixture of isomers) [Compound 16a] | 88 | 156 | 4.8 | 56 | 7 | – | – | – | – | –
O=C(Nc1ccc2cncc(C(F)(F)F)c2c1)[C@@H]1CC1c1ccc(S(=O)(=O)Nc2ncccn2)cc1 (stereo partly shown) [Compound 9] | 14 | 1570 | 8.2 | 1160 | – | – | – | – | – | –
Cc1cncc2ccc(NC(=O)[C@@H]3C[C@H]3c3ccc(S(=O)(=O)Nc4nccs4)cc3)cc12 [Compound 32] | 5 | 20 | 3.4 | 12.3 | – | – | – | – | – | –
CCc1cncc2ccc(NC(=O)[C@@H]3C[C@H]3c3ccc(S(=O)(=O)Nc4ncccn4)cc3)cc12 [Compound 7] | 3.6 | 1090 | 5.8 | 880 | – | – | – | – | – | –
Cc1cncc2ccc(NC(=O)[C@@H]3C[C@H]3c3ccc(S(=O)(=O)Nc4cnccn4)cc3)cc12 [Compound 10] | – | – | – | – | 34 | – | – | – | – | –
CN(C)Cc1ccc(NC(=O)c2cccc([C@@H]3C[C@H]3C(=O)Nc3ccc4cncc(Cl)c4c3)c2)nc1 [Compound 36] | – | – | – | – | – | 5.92 | 7.92 | 6.68 | 9.00 | –
O=C(Nc1ccc2cncc(Cl)c2c1)[C@@H]1C[C@H]1c1ccc(S(=O)(=O)Nc2ccc(F)cn2)cc1 [Compound 15] | 88 | 156 | 4.8 | 56 | – | – | – | – | – | –
O=C(Nc1ccc2cncc(C(F)(F)F)c2c1)[C@@H]1C[C@H]1c1ccc(S(=O)(=O)Nc2ccccn2)cc1 [Compound 14] | 16 | 122 | 9 | 108 | – | – | – | – | – | –
Cc1cncc2ccc(NC(=O)[C@@H]3CC3c3ccc(S(=O)(=O)Nc4cccnc4)cc3)cc12 (stereo partly shown) [Compound 27] | 159 | – | – | – | – | – | – | – | – | –
Cc1cncc2ccc(NC(=O)[C@@H]3CC3c3ccc(S(=O)(=O)Nc4cnccn4)cc3)cc12 (stereo partly shown) [Compound 10] | 105 | 220 | 14 | 74 | – | – | – | – | – | > 1000
O=C(Nc1ccc2cncc(Cl)c2c1)[C@@H]1CC1c1ccc(S(=O)(=O)Nc2ccc(F)cn2)cc1 (mixture of isomers) [Compound 16b] | 70 | 74 | 2.9 | 25 | 12 | – | – | – | – | –
O=C(Nc1cccnn1)c1ccc(C2C[C@H]2C(=O)Nc2ccc3cnccc3c2)cc1 (stereo partly shown) [Compound 175] | – | – | – | – | – | – | 6.19 | – | – | –
CCc1cncc2ccc(NC(=O)[C@@H]3CC3c3ccc(S(=O)(=O)Nc4ccccn4)cc3)cc12 (stereo partly shown) [Compound 17] | – | 44 | 4.2 | 45 | – | – | – | – | – | –
Cc1cncc2ccc(NC(=O)[C@@H]3C[C@H]3c3ccc(S(=O)(=O)NC4CCNC4)cc3)cc12 (stereo partly shown) [Compound 12] | 759 | 21 | 175 | 21 | – | – | – | – | – | –
N#Cc1cncc2ccc(NC(=O)[C@@H]3CC3c3ccc(S(=O)(=O)Nc4ccccn4)cc3)cc12 (stereo partly shown) [Compound 20] | 6.9 | 30 | 2.4 | 20 | – | – | – | – | – | –
Cc1cncc2ccc(NC(=O)[C@@H]3C[C@H]3c3ccc(S(=O)(=O)Nc4ncc(C5CCNCC5)cn4)cc3)cc12 [Compound 1] | 1130 | 16 | 148 | 4.9 | – | – | – | – | – | –
Cc1cncc2ccc(NC(=O)[C@@H]3C[C@H]3c3ccc(S(=O)(=O)Nc4cccnc4)cc3)cc12 [Compound 27] | – | – | 19 | 44 | 98 | – | – | – | – | –
O=C(Nc1ccc2cncc(Cl)c2c1)[C@@H]1C[C@H]1c1ccc(S(=O)(=O)Nc2ncccn2)cc1 [Compound 6] | 4.1 | 128 | – | 68 | – | – | – | – | – | –
O=C(Nc1ccc2cnccc2c1)[C@@H]1CC1c1cc(F)ccc1S(=O)(=O)Nc1ccccn1 (stereo partly shown) [Compound 19] | – | 7400 | 6750 | – | – | – | – | – | – | –
O=C(Nc1ccc2cnccc2c1F)[C@@H]1C[C@H]1c1ccc(S(=O)(=O)Nc2cccnc2)cc1 [Compound 29] | > 5000 | 43 | 350 | 13.8 | – | – | – | – | – | –
Cc1cncc2ccc(NC(=O)[C@@H]3C[C@H]3c3ccc(S(=O)(=O)Nc4cncc(C5=CCNCC5)n4)cc3)cc12 [Compound 11] | 765 | 153 | 135 | 15 | – | – | – | – | – | –
Cc1cncc2ccc(NC(=O)[C@@H]3C[C@H]3c3ccc(S(=O)(=O)NC4CCCNC4)cc3)cc12 (stereo partly shown) [Compound 13] | 825 | 18 | 179 | 15 | – | – | – | – | – | –
O=C(Nc1ccc2cncc(Cl)c2c1)[C@@H]1CC1c1ccc(S(=O)(=O)Nc2cccnc2)cc1 (stereo partly shown) [Compound 28] | 381 | 160 | 18 | 67 | 210 | – | – | – | – | 57
